Bridge positions count the residues as written; N and C are the ends. Primed or numbered codes have the meaning given here. Ends that are not written are not given here. I, II: the chains in the order shown. * marks the point of attachment. Biotin = O=C1N[C@H]2[C@H](CS[C@H]2CCCCC(=O)*)N1; BMH′ = not defined here
Key:
[1] = test system: Human keratinocytes (NHEK cell), IL-8 secretion; test: IL-8 secretion by NHEK cells (ELISA); assay type: cell-based; settings: for secretion amount of IL-8: FIG. 8, 50 μg/ml, deletion variants of b7; for secretion amount of IL-8 / IL-8 inducing activity: 16–20 hours; for IL-8 inducing activity: Table IV, 50 μg/ml, symbols not defined
Protocol: Human keratinocytes (NHEK cell, Clonetics, available from Sanko Jyun-yaku, Ltd.) were cultivated in a medium for proliferation (Clontics) comprising 30 μg/ml BPE, 0.1 ng/ml human EGF, 5 μg/ml insulin, 0.5 μg/ml hydrocortisone, 50 μg/ml gentamycin, and 50 ng/ml amphoterin. These cells were re-suspended at the concentration of 1×10^4 cells/ml in a medium wherein EGF, insulin, and hydrocortisone were removed from the above medium for proliferation, and then 100 μl of the suspension was placed on each well of a 96-well plate. At the same time of the plating of the cells, 5 μl of 1 mg/ml oligopeptide was added to the suspension so as to be final concentration of 50 μg/ml. After cultivation for 16–20 hours, the amount of IL-8 in the culture supernatants was measured by ELISA kit (ENDOGEN).

[2] = test system: antigen of about 220 kDa present in new follicle (antigen of mAb27); test: Skin tissues of maxilla of ICR mice incubated with test oligopeptide, Western blot with mAb 27; assay type: cell-based; settings: for hair growth promoting activity (mAb 27 band stronger than control): Example 10, FIG. 4 and 5, BMH-treated oligopeptides of Example 9, 20 μCM
Protocol: The skin tissues of maxilla of ICR mice (pregnancy 12 days) were collected by stereoscopic microscope, and left and right sides were respectively recovered from 5 mice. 5 pieces of each of the thus collected left (for control) and right (for test oligopeptides) skins from 5 mice were respectively placed on 1 nuclepore membrane (pore diameter 8 μm; diameter 13 mm), and were set in such a way that the outside upturns by observing the samples with stereoscopic microscope. 500 μl of Dulbecco's MEM/Ham F12 medium containing 1% BSA was added to 2 wells of 24 well dish. The test oligopeptide in a solvent (PBS) was added in a final concentration of 20 μCM to one well, and solvent (PBS) was added in the same amount to the other well as a control. The oligopeptides synthesized in Example 9 were used as the test oligopeptides.
(§1) Each membrane having skin tissues thereon was launched on the solution in the above wells, and was incubated at 37° C. for 6 days. 5 pieces of tissue were recovered from the membrane into 100 μl of SDS sample buffer (SDS 0.02 g/ml, glycerol 0.2 g/ml, pH6.8), and dissolved by ultrasonic treatment. The control membrane was also treated similarly. The solution obtained by such a treatment was subjected to electrophoresis (35 mA, 1.5 hour) in SDS-PAGE (acrylamide 4–20%), and transferred to PVDF membrane, and incubated in Tris buffer containing 5% skim milk (TBST) for 1 hour. The membrane was reacted with mAb 27 (10 μg/ml in TBST) obtained in Example 2 for 1 hour, and was washed well with TBS. Then, peroxidase labeled anti-rat IgG (Amersham) (1/1000 diluted in TBST) was reacted as the second antibody, and the membrane was washed well with TBS. The intensity of the reaction of mAb 27 was examined using ECL kit (Amersham).
The skin tissues of maxilla of ICR mice (pregnancy 12 days) were collected by stereoscopic microscope, and left and right sides were respectively recovered from 5 mice. 5 pieces of each of the thus collected left (for control) and right (for test oligopeptides) skins from 5 mice were respectively placed on 1 nuclepore membrane (pore diameter 8 μm; diameter 13 mm), and were set in such a way that the outside upturns by observing the samples with stereoscopic microscope. 500 μl of Dalbecco's MEM/Ham F12 medium containing 1% BSA was added to 2 wells of 24 well dish. The test oligopeptide in a solvent (PBS) was added in a final concentration of 20 μM to one well, and solvent (PBS) was added in the same amount to the other well as a control. The unmodified and modified oligopeptides synthesized in the above (1) were used as the test oligopeptides.
as §1, with “Example 6” for “Example 2”
The skin tissues of maxilla of ICR mice (pregnancy 12 days) were collected by stereoscopic microscope, and left and right sides were respectively recovered from 5 mice. […]

[3] = test system: transition from telogen to anagen (hair cycle); test: Evaluation of hair growth promoting activity by in vivo method (shaved telogen mice, hair growth score); design: species or system C57BL/6 mice; settings: for hair restoration compared with the control group (hair growth score): topical application until 38th day, FIGS. 6 and 7; for Hair growth Activity: Table IV, symbols not defined
Protocol: C3H and C57BL/6 mice are known to have sustained telogen for about 50 days from the 45th day after the birth to around the 95th day. Their hair cycle is easily judged based on the skin color changes, i.e., from pink in telogen to gray or black in anagen. A test for evaluating whether or not the administration the oligopeptides of the present invention promotes the transition from telogen to anagen was carried out using the mice. Seven weeks old (48 to 50-day old, female) C57BL/6 mice were purchased and hair of the back (about 3×2.5 cm^2) was carefully shaved with electric clippers for animals so as not to injure the skin, and the hair cycle was confirmed to be in telogen from the skin color. The oligopeptide solution prepared above was applied to five mice in each group, once a day and 5 days in a week in the amount of 0.2 ml until 38th day from the start of the test. The application was carried out by using a syringe without needle. Dipeptide (Ile-Lys) and tripeptide (Glu-Ile-Lys) of which N-terminal is biotinylated were mixed, and then added with the cross-linking agent to prepare a control solution.
Plural persons (two persons) observed the mice twice a week by naked eye for evaluation, and gave a 6-graded score depending on a ratio of hair restoration area based on the hair shaved area. At the same time, photographs were taken. Hair growth scores were calculated as follows. At first, the following score was given depending on a ratio of areas where the skin color changes to gray or black in the hair shaved area; 0–20%: 1, 20–40%: 2, 40–60%: 3, 60–80%:4, 80–100%: 5. The sum of the above scores in each group was determined as the hair growth score. The maximum value of the hair growth score of each group was 50 for each of the persons for judgment, and the maximum value of hair growth score was 100 because the judgment was made by two persons.

[4] = cited from earlier work
[5] = Example 11, position of Cys altered, synthesized as in Example 9

EQSCDQDE (Biotin-EQSCDQDE) [b7ΔN2]
secretion amount of IL-8 [1]: slightly decreased

IEQSCDQDE (Biotin-IEQSCDQDE) [b7ΔN1]
secretion amount of IL-8 [1]: slightly decreased

Lys-Ser-Ile-Glu-Gln-Ser-Cys-Asp-Gln-Asp-Glu (Biotin-KSIEQSCDQDE) [bk7]
IL-8 inducing activity compared with oligopeptide b7 ([1]; FIG. 9, Examples 17 and 18): almost the same IL-8 inducing activity as that of oligopeptide b7

QSCDQDE (Biotin-QSCDQDE) [b7ΔN3]
secretion amount of IL-8 [1]: slightly decreased

SICEQSD [SEQ ID NO:6]
hair growth promoting activity [2, 5]: showed a hair growth promoting activity

SICEQSDQDE [oligopeptide (C)]
hair growth promoting activity (mAb 27 band stronger than control) ([2]; 6 days): have a hair growth promoting activity

SIECQSD [SEQ ID NO:5]
hair growth promoting activity [2, 5]: showed a hair growth promoting activity

SIECQSDQ [oligopeptide (D)]
hair growth promoting activity (mAb 27 band stronger than control) ([2]; 6 days): had a hair growth promoting activity

SIECQSDQDE [oligopeptide (B)]
hair growth promoting activity (mAb 27 band stronger than control) ([2]; 6 days): have a hair growth promoting activity

SIEQCSD [SEQ ID NO:4]
hair growth promoting activity [2, 5]: showed a hair growth promoting activity

SIEQCSDQDE [oligopeptide (A)]
hair growth promoting activity (mAb 27 band stronger than control) ([2]; 6 days): have a hair growth promoting activity

SIEQS (Biotin-SIEQS) [b7ΔC5]
secretion amount of IL-8 [1]: significantly decreased

SIEQSC (Biotin-SIEQSC; also: Cys sulfhydryl blocked (group not given here)) [b7ΔC4]
secretion amount of IL-8 [1]: maintained

SIEQSCD (Biotin-SIEQSCD; also: Cys sulfhydryl blocked (group not given here)) [b7ΔC3]
secretion amount of IL-8 [1]: maintained

SIEQSCDQ (Biotin-SIEQSCDQ; also: Cys sulfhydryl blocked (group not given here)) [b7ΔC2]
secretion amount of IL-8 [1]: maintained

SIEQSCDQD (Biotin-SIEQSCDQD; also: sulfhydryl blocked) [b7ΔC1]
secretion amount of IL-8 [1]: maintained

SIEQSCDQDE [SEQ ID NO:84]
hair growth promoting activity ([3]; conclusion of Example 15): has hair growth promoting activity

b7: modified oligopeptide having biotin at the N-terminus of Ser-Ile-Glu-Gln-Ser-Cys-Asp-Gln-Asp-Glu (SEQ ID NO:84) (Biotin-SIEQSCDQDE)
IL-8 inducing activity [1]: ⊚ | hair restoration compared with the control group (hair growth score) ([3]; C57BL/6 mice): hair restoration was promoted until about 30 days from the start of the test | Hair growth Activity [3]: ◯

heterodimer oligopeptide: heterodimer made with BMH from two different oligopeptides; b464 names SEQ ID NO:87 and SEQ ID NO:4, b490 oligopeptides (A) and (B) (chain 1 SIEQSCD; chain 2 SIEQCSD; linker I:6-II:5 via BMH′ (inferred))
hair growth promoting activity (mAb 27 band stronger than control) ([2]; 6 days): had also a hair growth promoting activity

ss7: S-S bridged oligopeptide prepared by reacting the oligopeptide (SEQ ID NO:84 series) with BMH; elsewhere called S-S bridged and biotinylated (SIEQSCDQDE; also: BMH cross-linked dimer, Cys attachment not placed, biotinylated, site not given here)
IL-8 inducing activity [1]: ⊚ | hair growth promoting activity ([2]; Example 16): has hair growth promoting activity | band of mAb27 antigen versus control ([2]; Example 16, FIG. 13, 20 μM, 6 days): a stronger band was detected | transition to anagen earlier than the control group ([3]; C57BL/6 mice, 0.2 ml of oligopeptide solution (0.15 mg/ml, 50% ethanol/PBS) once a day, 5 days in a week): ≥ 7 days | hair restoration compared with the control group (hair growth score) ([3]; C57BL/6 mice): hair restoration was promoted at any time until the hair grew and restored almost completely | Hair growth Activity [3]: ⊚

B1: Native mammalian epimorphin: protein of 277 to 289 amino acids promoting the morphogenesis of epithelial tissue (protein, UniProt P32856 1-288, looked up)
Syntaxin-2: MRDRLPDLTACRKNDDGDTVVVVEKDHFMDDFFHQVEEIRNSIDKITQYVEEVKKNHSIILSAPNPEGKIKEELEDLNKEIKKTANKIRAKLKAIEQSFDQDESGNRTSVDLRIRRTQHSVLSRKFVEAMAEYNEAQTLFRERSKGRIQRQLEITGRTTTDDELEEMLESGKPSIFTSDIISDSQITRQALNEIESRHKDIMKLETSIRELHEMFMDMAMFVETQGEMINNIERNVMNATDYVEHAKEETKKAIKYQSKARRKKWIIIAVSVVLVAIIALIIGLSVGK
solubility in aqueous media such as saline [4]: almost insoluble

Source: patent US7241731B2, “Oligopeptides for promoting hair growth” (Sumitomo Electric Industries, Ltd., priority 2000, dated 2007)
